Source: patent US12077503B2, “Substituted cyclic amides and their use as herbicides” (FMC CORPORATION, priority 2015, dated 2024)
Like-named read-outs stand apart in the source and are kept apart here.

How the values were obtained:
Type in all cases: in vivo
[1] = tested on: barnyardgrass (Echinochloa crus-galli); assay: Test A preemergence; conditions: Echinochloa crus-galli, pre-emergence, 240 h; for pest or weed control at 125 g/ha: 125 g ai/ha; for pest or weed control at 500 g/ha: 500 g ai/ha
Method in brief: (§1)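 Greenhouse, ~10 d after spray; visual injury vs untreated controls, 0 = no effect, 100 = complete control. Preemergence: directed soil spray over planted seeds. Postemergence: plants 2–10 cm, 1–2 leaf stage. Loam/sand blend. Compound in non-phytotoxic solvent with surfactant.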

Kochia (Kochia scoparia) [2] = assay: Test A preemergence; conditions: Bassia scoparia, pre-emergence, 240 h; for pest or weed control at 125 g/ha: 125 g ai/ha; for pest or weed control at 500 g/ha: 500 g ai/ha
Method in brief: as §1

[3] = tested on: ragweed (common ragweed, Ambrosia elatior); assay: Test A preemergence; conditions: Ambrosia artemisiifolia, pre-emergence, 240 h; for pest or weed control at 125 g/ha: 125 g ai/ha; for pest or weed control at 500 g/ha: 500 g ai/ha
Method in brief: as §1

[4] = tested on: giant foxtail (Setaria faberii); assay: Test A preemergence; conditions: Setaria faberi, pre-emergence, 240 h; for pest or weed control at 125 g/ha: 125 g ai/ha; for pest or weed control at 500 g/ha: 500 g ai/ha
Method in brief: as §1

[5] = tested on: ryegrass, Italian (Italian ryegrass, Lolium multiflorum); assay: Test A preemergence; conditions: Lolium multiflorum, pre-emergence, 240 h; for pest or weed control at 125 g/ha: 125 g ai/ha; for pest or weed control at 500 g/ha: 500 g ai/ha
Method in brief: as §1

[6] = tested on: pigweed (Amaranthus retroflexus); assay: Test A preemergence; conditions: Amaranthus retroflexus, pre-emergence, 240 h; for pest or weed control at 125 g/ha: 125 g ai/ha; for pest or weed control at 500 g/ha: 500 g ai/ha
[7] = tested on: sedge, umbrella (small-flower umbrella sedge, Cyperus difformis); assay: Test B flooded paddy test; conditions: Cyperus difformis, 250 g ai/ha, Flood
Method in brief: (§2)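 Flooding to 3 cm over soil accompanied treatment, which consisted of adding compound to the standing water around 2-leaf plants; depth was then maintained. Visual assessment versus controls followed at 13 to 15 d (scale 0–100, 0 meaning no effect).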

[8] = tested on: barnyardgrass (Echinochloa crus-galli); assay: Test B flooded paddy test; conditions: Echinochloa crus-galli, 250 g ai/ha, Flood; 0 to 100 scale where 0 is no effect and 100 is complete control; read-out: Barnyardgrass plant response rating
Method in brief: as §2

rice (Oryra sativa) = assay: Test B flooded paddy test; conditions: Oryza sativa, 250 g ai/ha, Flood; 0 to 100 scale where 0 is no effect and 100 is complete control; read-out: Rice plant response rating
Method in brief: as §2

[9] = tested on: ducksalad (Heteranthera limosa); assay: Test B flooded paddy test; conditions: Heteranthera limosa, 250 g ai/ha, Flood; 0 to 100 scale where 0 is no effect and 100 is complete control; read-out: Ducksalad plant response rating
Method in brief: as §2

Kochia (Kochia scoparia) [10] = assay: Test A postemergence; conditions: Bassia scoparia, post-emergence, 240 h, Postemergence; for pest or weed control at 125 g/ha: 125 g ai/ha, visual rating about 10 d after treatment, read-out: Kochia plant response rating (0 to 100 scale); for pest or weed control at 500 g/ha: 500 g ai/ha, visual injury, 0 to 100 scale (0 no effect, 100 complete control), approx. 10 d, read-out: Plant response rating, Kochia
Method in brief: as §1

[11] = tested on: giant foxtail (Setaria faberii); assay: Test A postemergence; conditions: Setaria faberi, post-emergence, 240 h, Postemergence; for pest or weed control at 125 g/ha: 125 g ai/ha, visual rating about 10 d after treatment, read-out: Foxtail, Giant plant response rating (0 to 100 scale); for pest or weed control at 500 g/ha: 500 g ai/ha, visual injury, 0 to 100 scale (0 no effect, 100 complete control), approx. 10 d, read-out: Plant response rating, Foxtail, Giant
Method in brief: as §1

[12] = tested on: ryegrass, Italian (Italian ryegrass, Lolium multiflorum); assay: Test A postemergence; conditions: Lolium multiflorum, post-emergence, 240 h, Postemergence; for pest or weed control at 125 g/ha: 125 g ai/ha, visual rating about 10 d after treatment, read-out: Ryegrass, Italian plant response rating (0 to 100 scale); for pest or weed control at 500 g/ha: 500 g ai/ha, visual injury, 0 to 100 scale (0 no effect, 100 complete control), approx. 10 d, read-out: Plant response rating, Ryegrass, Italian
Method in brief: as §1

[13] = tested on: pigweed (Amaranthus retroflexus); assay: Test A postemergence; conditions: Amaranthus retroflexus, post-emergence, 240 h, Postemergence; for pest or weed control at 125 g/ha: 125 g ai/ha, visual rating about 10 d after treatment, read-out: Pigweed plant response rating (0 to 100 scale); for pest or weed control at 500 g/ha: 500 g ai/ha, visual injury, 0 to 100 scale (0 no effect, 100 complete control), approx. 10 d, read-out: Plant response rating, Pigweed
Method in brief: as §1

[14] = preemergence, visual injury rating, 0 to 100 scale where 0 is no effect and 100 is complete control, approximately 10 d, read-out: Barnyardgrass plant response rating
[15] = preemergence, 0 to 100 scale where 0 is no effect and 100 is complete control, read-out: Barnyardgrass plant response rating
[16] = preemergence, visual injury rating, 0 to 100 scale where 0 is no effect and 100 is complete control, approximately 10 d, read-out: Kochia plant response rating
[17] = preemergence, 0 to 100 scale where 0 is no effect and 100 is complete control, read-out: Kochia plant response rating
[18] = preemergence, visual injury rating, 0 to 100 scale where 0 is no effect and 100 is complete control, approximately 10 d, read-out: Ragweed plant response rating
[19] = preemergence, 0 to 100 scale where 0 is no effect and 100 is complete control, read-out: Ragweed plant response rating
[20] = preemergence, visual injury rating, 0 to 100 scale where 0 is no effect and 100 is complete control, approximately 10 d, read-out: Foxtail, Giant plant response rating
[21] = preemergence, 0 to 100 scale where 0 is no effect and 100 is complete control, read-out: Foxtail, Giant plant response rating
[22] = preemergence, visual injury rating, 0 to 100 scale where 0 is no effect and 100 is complete control, approximately 10 d, read-out: Ryegrass, Italian plant response rating
[23] = preemergence, 0 to 100 scale where 0 is no effect and 100 is complete control, read-out: Ryegrass, Italian plant response rating
[24] = preemergence, visual injury rating, 0 to 100 scale where 0 is no effect and 100 is complete control, approximately 10 d, read-out: Pigweed plant response rating
[25] = preemergence, 0 to 100 scale where 0 is no effect and 100 is complete control, read-out: Pigweed plant response rating
[26] = 0 to 100 scale where 0 is no effect and 100 is complete control, read-out: Sedge, Umbrella plant response rating
[27] = Preemergence, 0 to 100 scale (0 no effect, 100 complete control), read-out: Plant response rating, Barnyardgrass
[28] = Preemergence, 0 to 100 scale (0 no effect, 100 complete control), read-out: Plant response rating, Kochia
[29] = Preemergence, 0 to 100 scale (0 no effect, 100 complete control), read-out: Plant response rating, Ragweed
[30] = Preemergence, 0 to 100 scale (0 no effect, 100 complete control), read-out: Plant response rating, Foxtail, Giant
[31] = Preemergence, 0 to 100 scale (0 no effect, 100 complete control), read-out: Plant response rating, Ryegrass, Italian
[32] = Preemergence, 0 to 100 scale (0 no effect, 100 complete control), read-out: Plant response rating, Pigweed
[33] = 360 h, visually evaluated after 13 to 15 d, read-out: Plant response rating, Sedge, Umbrella (0 to 100 scale where 0 is no effect and 100 is complete control)

Row | Structure (SMILES) | pest or weed control at 125 g/ha [1, 14] [%] | pest or weed control at 500 g/ha [1, 15] [%] | pest or weed control at 125 g/ha (Kochia (Kochia scoparia) [2]; [16]) [%] | pest or weed control at 500 g/ha (Kochia (Kochia scoparia) [2]; [17]) [%] | pest or weed control at 125 g/ha [3, 18] [%] | pest or weed control at 500 g/ha [3, 19] [%] | pest or weed control at 125 g/ha [4, 20] [%] | pest or weed control at 500 g/ha [4, 21] [%] | pest or weed control at 500 g/ha [6, 25] [%] | pest or weed control at 250 g/ha [8] [%] | pest or weed control at 250 g/ha (rice (Oryra sativa)) [%] | pest or weed control at 250 g/ha [9] [%] | pest or weed control at 125 g/ha (Kochia (Kochia scoparia) [10]) [%] | pest or weed control at 500 g/ha (Kochia (Kochia scoparia) [10]) [%] | pest or weed control at 125 g/ha [11] [%] | pest or weed control at 500 g/ha [11] [%] | pest or weed control at 125 g/ha [12] [%] | pest or weed control at 500 g/ha [12] [%] | pest or weed control at 125 g/ha [13] [%] | pest or weed control at 500 g/ha [13] [%] | further results
1 | Cc1nc([C@H]2CN(C)C(=O)[C@@H]2C(=O)Nc2cccc(F)c2F)cs1 [Compound 1281] | 40 | 90 | 0 | 60 | 0 | 60 | 40 | 90 | 40 | 0 | 0 | 50 | 0 | 30 | 20 | 30 | 0 | 0 | 0 | 0 | pest or weed control at 125 g/ha [5, 22]: 0%; pest or weed control at 500 g/ha [5, 23]: 20%; pest or weed control at 125 g/ha [6, 24]: 30%; pest or weed control at 250 g/ha [7, 26]: 0%
2 | COc1cc([C@H]2CN(C)C(=O)[C@@H]2C(=O)Nc2ccccc2F)ccc1F [Compound 1298] | 80 | 90 | 0 | 80 | 0 | 20 | 90 | 90 | 0 | 50 | 15 | 80 | 0 | 0 | 70 | 90 | 0 | 0 | 0 | 0 | pest or weed control at 125 g/ha [5, 22]: 0%; pest or weed control at 500 g/ha [5, 23]: 0%; pest or weed control at 125 g/ha [6, 24]: 0%; pest or weed control at 250 g/ha [7, 26]: 0%
3 | COc1cc([C@H]2CN(C)C(=O)[C@@H]2C(=O)Nc2cccc(F)c2C)ccc1F [Compound 1300] | 90 | 90 | 0 | 60 | 0 | 80 | 90 | 90 | 40 | 65 | 25 | 80 | 0 | 0 | 80 | 90 | 0 | 30 | 0 | 0 | pest or weed control at 125 g/ha [5, 22]: 0%; pest or weed control at 500 g/ha [5, 23]: 60%; pest or weed control at 125 g/ha [6, 24]: 0%; pest or weed control at 250 g/ha [7, 26]: 0%
4 | CN1C[C@H](c2cccc(C(C)(F)F)c2)[C@@H](C(=O)Nc2ccc(F)cc2F)C1=O [Compound 1319] | – | 90 | – | 80 | – | 20 | – | 90 | 60 | 90 | 0 | 90 | 20 | 60 | 90 | 90 | 40 | 60 | 0 | 50 | pest or weed control at 125 g/ha [1, 27]: 90%; pest or weed control at 125 g/ha (Kochia (Kochia scoparia) [2]; [28]): 80%; pest or weed control at 125 g/ha [3, 29]: 0%; pest or weed control at 125 g/ha [4, 30]: 90%; pest or weed control at 125 g/ha [5, 31]: 30%; pest or weed control at 125 g/ha [6, 32]: 0%; pest or weed control at 250 g/ha [7, 33]: 0%
5 | CN1C[C@H](c2ccc3c(c2)CCO3)[C@@H](C(=O)Nc2cccc(F)c2F)C1=O [Compound 1324] | – | 100 | – | 90 | – | 90 | – | 100 | 40 | 75 | 0 | 65 | 30 | 70 | 90 | 90 | 30 | 50 | 0 | 20 | pest or weed control at 125 g/ha [1, 27]: 90%; pest or weed control at 125 g/ha (Kochia (Kochia scoparia) [2]; [28]): 90%; pest or weed control at 125 g/ha [3, 29]: 90%; pest or weed control at 125 g/ha [4, 30]: 90%; pest or weed control at 125 g/ha [5, 31]: 20%; pest or weed control at 125 g/ha [6, 32]: 0%; pest or weed control at 250 g/ha [7, 33]: 0%
